Data from publication PMC7648750, “In vitro and in vivo BNCT investigations using a carborane containing sulfonamide targeting CAIX epitopes on malignant pleural mesothelioma and breast cancer cells” (Scientific Reports, 2020).

What was measured:
[1] = Boron biodistribution in AB22 tumour bearing mice (ICP-MS); assay type: in vivo, Balb/c mice; details: 37.5 mg/kg of boron, ± SD; for Brain [boron]: with β-cyclodextrin oligomer
Method: Adult male Balb/c mice were maintained under specific pathogen-free conditions at the animal facility of the Department of Molecular Biotechnology and Health Sciences (Turin University, Italy). All animal experiments have been carried out in accordance with the EU Directive 2010/63/EU for animal experiments. The animal treatment protocol was approved by the Italian Ministry of Health (Authorization Number 1012/2015-PR). AB22 cells were cultured as described above and tumours were generated by the injection of 4.8 × 10^6 AB22 cells in a final volume of 0.15 ml GFNR Matrigel (CORNING Ref. 354234): PBS (1:1 v/v) subcutaneously in the neck of the mouse. One week after the AB22-cell injection, the mice developed solid tumours of approximately 50 ± 10 mm^3 in volume. At this time, mice (n = 6) received an intravenous injection of CA-SF (88 mg/kg corresponding to 37.5 mg/kg of ^10B). Before the injection, CA-SF in DMSO was mixed in the presence of poly β-cyclodextrin (MW = 15,000 Da) previously dissolved in 0.9% solution of NaCl. The used CA-SF molar ratio with respect to β-cyclodextrin oligomer was 10:1. The DMSO concentration in 0.9% NaCl was kept under 5%. The mice were then sacrificed at 6 h (n = 3) and at 16 h (n = 3). The boron content of mice plasma, tumours, organs (Liver, Lung, Brain, Spleen, Kidneys) and healthy tissues (Muscle) was determined by ICP-MS technique (see below).
Boron content from cell samples, mice organs, plasma and tumours were determined using inductively coupled plasma mass spectrometry (ICP-MS) (Element-2; Thermo-Finnigan, Rodano (MI), Italy).
The mice blood was collected and centrifuged at 2500 rpm for 10 min to split the plasma part over whole blood; the tumours, organs and healthy tissues were explanted. All was weighted, dissolved in HNO3 (70%) and digested. Both natural boron abundant and ^10B enriched standard solution was analyzed during sample runs in order to check for variations in the systematic bias. The calibration curve was obtained using four boron absorption standard solutions (Sigma-Aldrich) in the range 0.1–0.004 μg/mL.

[2] = test system: AB22 mesothelioma tumour; test: Tumour growth by MRI in AB22 mesothelioma tumour bearing mice (CA-SF with or without BNCT); assay type: in vivo, Balb/c mice; details: three i.v. doses 37.5 mg/kg of boron at day 0, 2, 6, followed 25 days
Method: CA-SF treatment on mesothelioma bearing mice, were performed in the thermal column of the TRIGA Mark II reactor at Pavia University (Italy) using the same protocol reported in reference^35. The irradiation facility was previously designed for TAOrMINA treatment developed to treat multiple liver metastases with BNCT. The chamber used to perform animal irradiation has a cross section of 40 × 20 cm^2, a length of 1 m and it starts at about 1.3 m from the center of the reactor core. The animal irradiation position has been characterised in terms of neutron spectrum and background photon dose[43]. […]
The T2-weighted MR images were acquired at 1 T with an Aspect M2-High Performance MRI System (Aspect Magnet Technologies Ltd., Netanya, Israel) consisting of a NdFeB magnet, equipped with a 35 mm solenoid Tx/Tr coil of inner diameter 35 mm. […] The tumour volume (mm^3) was calculated in the region of interest (ROI) manually drawn on the whole tumour by ITK-SNAP software. Tumour volume enhancement (%) was calculated according to the following equation: ((tumour volume (time = n) – tumour volume (time = 0)/tumour volume (time = 0)) × 100, where time = 0 indicates the day of the first CA-SF treatment and time = n indicates the days when mice were acquired by MRI.

[3] = Solubility in aqueous media; assay type: physicochemical

Brain [boron] ([1]; 6 h post i.v.): 30.7 ± 11.2 µg/g | Kidney [boron] ([1]; 6 h post i.v.): 48.2 ± 15.3 µg/g | Liver [boron] ([1]; 6 h post i.v.): 64.5 ± 1.2 µg/g | Lungs [boron] ([1]; 6 h post i.v.): 37.2 ± 11.2 µg/g | Muscle [boron] ([1]; 6 h post i.v.): 13.2 ± 2.5 µg/g | Plasma [boron] ([1]; 6 h post i.v.): 20.4 ± 5.4 µg/g | Spleen [boron] ([1]; 6 h post i.v.): 18.5 ± 5.8 µg/g | Tumour [boron] ([1]; 6 h post i.v.): 13.8 ± 2.4 µg/g | Brain [boron] ([1]; 16 h post i.v.): 7.3 ± 1.1 µg/g | Kidney [boron] ([1]; 16 h post i.v.): 13.7 ± 1.9 µg/g | Liver [boron] ([1]; 16 h post i.v.): 22.7 ± 3.5 µg/g | Lungs [boron] ([1]; 16 h post i.v.): 12.1 ± 2.2 µg/g | Muscle [boron] ([1]; 16 h post i.v.): 4.4 ± 1.2 µg/g | Plasma [boron] ([1]; 16 h post i.v.): 11.1 ± 1.3 µg/g | Spleen [boron] ([1]; 16 h post i.v.): 6.2 ± 1.5 µg/g | Tumour [boron] ([1]; 16 h post i.v.): 7.4 ± 2.1 µg/g | solubility in aqueous media [3]: low
Substance: 1-Sulfonamidomethyl-o-carborane [CA-SF]
tumour growth (MRI tumour volume) vs vehicle control mice ([2]; CA-SF alone, not irradiated): significantly inhibits mice tumour growth | tumour growth (MRI tumour volume), CA-SF + BNCT ([2]; neutron irradiation day 3, 15 min, 250 kW): dramatic reduction of the mass of tumours
